The values that follow are results of earlier work, collected in patent US20080085892A1, “Liquid dosage form of acetaminophen” (priority 2006, published 2008).

For `COc1ccccc1OCC(O)CO` (centres unmarked) [Guaifenesin, 3-(2-methoxyphenoxy)-1,2-propanediol], the solubility in water result is recorded as “about 5 % wt” and the “solubility in water (in words)” value is recorded as “slightly soluble”.
